# pEC50, pIC50: −log10 of the molar value. Read-outs that look alike come from different tables or passages of the source.
# Experiments:
# human DGKζ = human DGKζ (Homo sapiens (Human), UniProt Q13574); assay: biochemical; type: biochemical; settings: liposome (LIPGLO) assay; read-out: DGKζ LIPGLO IC50
# [1] = test system: naïve human CD8 T cells (IFN-γ); assay: Human CD8 T cells IFN-γ assay; type: cell-based; settings: T-cell
# Procedure: Assay 8: Human CD8 T Cells IFN-γ Assay
# Frozen naïve human CD8 T cells were thawed in AIM-V media, incubated for 2 h in 37° C., and counted. The 384-well tissue culture plate was coated overnight at 4° C. with 20 μL anti-human CD3 at 0.05 μg/mL in PBS, which was removed off the plate before 40,000 cells per 40 microliters CD8 T cells with 0.1 μg/mL soluble anti-human CD28 were added to each well. The compounds were transferred using an Echo liquid handler to the cell plate immediately after the cells were plated. After 20 h incubation at 37° C. incubator, 3 microliters per well supernatants transferred into a new 384-well white assay plate for cytokine measurement.
# Interferon-γ (IFN-γ) was quantitated using the AlphLISA kit (Cat #AL217) as described by the manufacturer manual (Perkin Elmer). The counts from each well were converted to IFN-γ concentration (pg/mL).
# DGKα [2] = target: T1, DGKα (Homo sapiens (Human), UniProt P23743); assay: biochemical; type: biochemical; settings: liposome (LIPGLO) assay; read-out: DGKα LIPGLO IC50
# [3] = test system: Human venous whole blood (IFN-γ); assay: Human whole blood IFN-γ assay; type: cell-based
# Procedure: Assay 10: Human Whole Blood IFN-γ Assay
# Human venous whole blood (22.5 μL per well), obtained from healthy donors, was pre-treated with compounds for one hour at 37° C. in a humidified 95% air/5% CO2 incubator. The blood was stimulated with 2.5 μL anti-human CD3 and anti-CD28 mAb at a final concentration of 1 μg/mL each for 24 hours at 37° C. IFN-γ in the supernatants was measured using AlphLISA kit (Cat #AL217).
# DGKα [4] = target: T1, DGKα; assay: DGKα ADPGLO assay; type: biochemical
# naïve human CD8 T cells = assay: CellTiter-Glo CD8 T cell proliferation assay; type: cell-based; settings: Homo sapiens, read-out: CD8 GLO Normalized EC50
# In short: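 Thawed naïve human CD8 T cells (20 k/well) were stimulated with plate-bound anti-CD3 (0.1 μg/mL coating) and 0.5 μg/ml soluble anti-CD28, with compounds added right after plating. After 72 h at 37° C, proliferation was read by CellTiter-Glo luminescence. The signal from stimulated cells was taken as background.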
# [5] = test system: OT-1 CD8+ T cells with SIINFEKL-loaded MC38 tumor cells; assay: Murine cytotoxic T lymphocyte assay (IFN-γ); type: cell-based, mouse; settings: Mus musculus, MC-38; for pIC50: murine cytotoxic T lymphocyte, IFN-γ, read-out: msCTL INFg IC50; for pEC50: murine cytotoxic T lymphocyte assay, read-out: msCTL
# In short: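 OT-1 CD8+ T cells, expanded 5 days with OVA peptide and mIL2, pretreated 1 h with DGK inhibitor, then cocultured overnight at 37 °C with peptide-pulsed MC38 cells (1:10 ratio). IFN-γ in supernatant measured after 24 h by AlphaLisa.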
# [6] = read-out: HuCD8 INFG Normalized EC50
# [7] = human whole blood, anti-CD3 plus anti-CD28, 24 hours, read-out: INFg Whole Blood Normalized Agonist EC50
# [8] = Homo sapiens, 24 h, human whole blood, anti-CD3 plus anti-CD28, 24 hours, read-out: INFg Whole Blood Normalized Agonist EC50
# [9] = Homo sapiens, human whole blood IFN-γ, read-out: INFg Whole Blood
# human DGKζ, sequence (Q13574 whole entry, looked up): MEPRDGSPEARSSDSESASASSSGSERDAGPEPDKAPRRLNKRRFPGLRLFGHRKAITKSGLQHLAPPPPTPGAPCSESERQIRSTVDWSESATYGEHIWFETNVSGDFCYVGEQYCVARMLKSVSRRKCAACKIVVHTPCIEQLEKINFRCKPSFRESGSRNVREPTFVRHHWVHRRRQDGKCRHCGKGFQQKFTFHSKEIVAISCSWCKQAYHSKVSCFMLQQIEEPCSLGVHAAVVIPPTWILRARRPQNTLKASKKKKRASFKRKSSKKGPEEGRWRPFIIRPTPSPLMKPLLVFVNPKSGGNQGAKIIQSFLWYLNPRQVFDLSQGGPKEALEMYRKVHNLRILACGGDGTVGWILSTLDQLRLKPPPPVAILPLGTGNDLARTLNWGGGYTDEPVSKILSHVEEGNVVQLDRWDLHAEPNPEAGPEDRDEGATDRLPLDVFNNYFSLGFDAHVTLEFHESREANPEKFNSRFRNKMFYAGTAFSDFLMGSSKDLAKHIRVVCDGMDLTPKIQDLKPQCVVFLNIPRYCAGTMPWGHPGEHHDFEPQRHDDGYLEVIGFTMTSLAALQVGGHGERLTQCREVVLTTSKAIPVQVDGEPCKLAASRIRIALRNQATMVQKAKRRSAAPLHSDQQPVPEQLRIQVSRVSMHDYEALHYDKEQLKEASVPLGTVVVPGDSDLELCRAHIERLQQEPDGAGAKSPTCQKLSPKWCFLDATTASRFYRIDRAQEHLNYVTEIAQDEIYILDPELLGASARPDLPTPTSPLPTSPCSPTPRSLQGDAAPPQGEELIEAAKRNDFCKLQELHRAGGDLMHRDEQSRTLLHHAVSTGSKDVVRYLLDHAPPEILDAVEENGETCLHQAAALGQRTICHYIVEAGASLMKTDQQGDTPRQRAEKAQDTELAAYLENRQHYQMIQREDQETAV
# T1 sequence (P23743 whole entry, looked up): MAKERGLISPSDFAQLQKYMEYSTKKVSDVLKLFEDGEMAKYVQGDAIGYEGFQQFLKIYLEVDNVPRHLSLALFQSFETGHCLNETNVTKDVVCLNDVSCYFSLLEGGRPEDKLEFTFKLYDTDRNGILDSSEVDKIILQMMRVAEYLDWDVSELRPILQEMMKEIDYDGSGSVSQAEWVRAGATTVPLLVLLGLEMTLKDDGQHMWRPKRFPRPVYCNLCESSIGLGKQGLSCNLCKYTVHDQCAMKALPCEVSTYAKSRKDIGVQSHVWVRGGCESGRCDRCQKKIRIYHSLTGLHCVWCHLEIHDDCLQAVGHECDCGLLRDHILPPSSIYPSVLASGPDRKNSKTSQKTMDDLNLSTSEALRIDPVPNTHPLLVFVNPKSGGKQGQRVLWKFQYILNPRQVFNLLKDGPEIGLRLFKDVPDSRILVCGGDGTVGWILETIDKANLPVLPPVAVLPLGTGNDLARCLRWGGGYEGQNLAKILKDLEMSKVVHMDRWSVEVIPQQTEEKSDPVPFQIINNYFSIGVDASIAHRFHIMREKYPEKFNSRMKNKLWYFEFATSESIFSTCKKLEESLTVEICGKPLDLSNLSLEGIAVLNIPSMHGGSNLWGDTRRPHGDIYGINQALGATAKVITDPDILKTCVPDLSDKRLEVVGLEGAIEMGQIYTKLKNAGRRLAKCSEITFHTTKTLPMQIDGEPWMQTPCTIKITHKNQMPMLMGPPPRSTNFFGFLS
Structure (SMILES),pIC50 (human DGKζ),"pEC50 [1, 6]",pIC50 (DGKα [2]),pIC50 [5],pEC50 ([1]; read-out: HuCD8 INFG),also measured
"CCC(C)(C)c1ccc(O[C@@H]2CCN(c3cc(=O)n(C)c4ccc(C#N)nc34)C[C@H]2C)cc1 (single isomer, unassigned) [Example 83]",5.24,8.60,6.55,–,–,"pEC50 [3, 7]: 6.44"
"C[C@@H]1CN(c2cc(=O)n(C)c3ccc(C#N)nc23)CC[C@H]1Oc1cccc(C2CC2)c1 (single isomer, unassigned) [Example 92]",4.80,–,7.55,–,–,"pIC50 (DGKα [4]): 9.29; pEC50 [3, 7]: 6.04"
"Cn1c(=O)c(C#N)c(N2CCC(Oc3ccccc3Cl)CC2)c2nc(Cl)ccc21 [Example 18, 6-chloro-4-(4-(2-chlorophenoxy)piperidin-1-yl)-1-methyl-2-oxo-1,2-dihydro-1,5-naphthyridine-3-carbonitrile]",4.89,6.72,5.59,5.82,–,"pEC50 (naïve human CD8 T cells): 7.10; pEC50 [3, 8]: 5.00"
"C[C@@H]1CN(c2cc(=O)n(C)c3ccc(C#N)nc23)CC[C@H]1Oc1ccc(OC(C)(C)C)cc1 [Example 85, 8-((3R,4R)-4-(4-(tert-butoxy)phenoxy)-3-methylpiperidin-1-yl)-5-methyl-6-oxo-5,6-dihydro-1,5-naphthyridine-2-carbonitrile]",–,6.21,7.10,–,–,"pEC50 [3, 7]: 5.66"
"Cc1ccc(OC2CCN(c3c(C#N)c(=O)n(C)c4ccc(Cl)nc34)CC2)cc1 [Example 21, 6-chloro-1-methyl-2-oxo-4-(4-(p-tolyloxy)piperidin-1-yl)-1,2-dihydro-1,5-naphthyridine-3-carbonitrile]",5.11,6.80,6.11,5.77,–,pEC50 (naïve human CD8 T cells): 7.04
"Cn1c(=O)c(Br)c(N2CCC(Oc3ccc(OC(F)(F)F)cc3)CC2)c2nc(C#N)ccc21 [Example 239, 7-bromo-5-methyl-6-oxo-8-(4-(4-(trifluoromethoxy)phenoxy)piperidin-1-yl)-5,6-dihydro-1,5-naphthyridine-2-carbonitrile]",–,–,–,–,6.09,–
"Cn1c(=O)c(C#N)c(N2CCC(Oc3ccc(C(C)(C)C)cc3)CC2)c2nc(Cl)ccc21 [Example 15, 4-(4-(4-(tert-butyl)phenoxy)piperidin-1-yl)-6-chloro-1-methyl-2-oxo-1,2-dihydro-1,5-naphthyridine-3-carbonitrile]",5.13,6.06,6.29,6.54,–,"pEC50 (naïve human CD8 T cells): 6.49; pEC50 [3, 8]: 5.12"
"Cn1c(=O)c(F)c(N2CCC(Oc3ccc(OC(F)(F)F)cc3)CC2)c2nc(C#N)ccc21 [Example 237, 7-fluoro-5-methyl-6-oxo-8-(4-(4-(trifluoromethoxy)phenoxy)piperidin-1-yl)-5,6-dihydro-1,5-naphthyridine-2-carbonitrile]",–,–,–,–,6.47,"pEC50 [5]: 6.70; pEC50 [3, 9]: 5.48"
"CC[C@@H]1CN(c2cc(=O)n(C)c3ccc(C#N)nc23)CC[C@H]1Oc1cccc(C(C)C)c1 (single isomer, unassigned) [Example 138]",6.10,–,7.62,–,–,"pIC50 (DGKα [4]): 8.28; pEC50 ([3]; read-out: INFg Whole Blood Normalized Agonist EC50, human whole blood, anti-CD3 plus anti-CD28, 24 hours): 6.47"
"COc1ccc(-c2c(N3CCC(Oc4ccc(OC(F)(F)F)cc4)CC3)c3nc(C#N)ccc3n(C)c2=O)cn1 [Example 240, 7-(6-methoxypyridin-3-yl)-5-methyl-6-oxo-8-(4-(4-(trifluoromethoxy)phenoxy)piperidin-1-yl)-5,6-dihydro-1,5-naphthyridine-2-carbonitrile]",–,–,–,–,6.00,"pEC50 [5]: 6.24; pEC50 [3, 9]: 5.28"
"COc1cc(-c2c(N3CCC(Oc4ccc(OC(F)(F)F)cc4)CC3)c3nc(C#N)ccc3n(C)c2=O)ccn1 [Example 241, 7-(2-methoxypyridin-4-yl)-5-methyl-6-oxo-8-(4-(4-(trifluoromethoxy)phenoxy)piperidin-1-yl)-5,6-dihydro-1,5-naphthyridine-2-carbonitrile]",–,–,–,–,5.89,"pEC50 [5]: 6.24; pEC50 [3, 9]: 5.00"
"Cn1c(=O)cc(N2CCC(Oc3ccc(OC(F)(F)F)cc3)CC2)c2nc(C#N)ccc21 [Example 52, 5-methyl-6-oxo-8-(4-(4-(trifluoromethoxy)phenoxy)piperidin-1-yl)-5,6-dihydro-1,5-naphthyridine-2-carbonitrile]",5.42,6.00,6.10,6.82,–,"pEC50 [3, 8]: 5.57"
